From patent US20250186627A1, “RADIOLABELED COMPOUNDS TARGETING THE PROSTATE-SPECIFIC MEMBRANE ANTIGEN” (PROVINCIAL HEALTH SERVICES AUTHORITY, priority 2022, published 2025)
One block for each compound: values may come before it. *1 amine or outer side, *2 acyl side, *3 side chain or, on linkers, in order; H or OH if unused. Where a SMILES comes first, the peptide text is derived from it. [ ]: non-standard residue; d: D form. The star is where a group is joined. ξ: configuration not given here. ξLys(Nα-CO-ξAad) = O=C(O)CCCC(NC(=O)NC(CCCCN*)C(=O)O)C(=O)O; Butanoyl(4-(4-NO2Ph)) = O=C(CCCc1ccc([N+](=O)[O-])cc1)*; DOTA = O=C(O)CN1CCN(CC(=O)O)CCN(CC(=O)*)CCN(CC(=O)O)CC1; Butanoyl(4-(4-MeO-phenyl)) = COc1ccc(CCCC(=O)*)cc1; ξAla(9-anthryl) = NC(Cc1c2ccccc2cc2ccccc12)C(=O)O; X2 = O=C(NC(CCCCN*)C(=O)O)NC(CC(F)C(=O)O)C(=O)O; X1 = O=C(C1CCC(CN[*:1])CC1)[*:2]; ξK = NCCCCC(N)C(=O)O

System: NRG-mice bearing LNCaP tumors
Test: Biodistribution (and PET/SPECT imaging) in NRG-mice bearing LNCaP tumors
Type: in vivo
Details: for Biodistribution: Adrenal gland / Biodistribution: Blood / Biodistribution: Bone / Biodistribution: Brain / Biodistribution: Fat / Biodistribution: Heart / Biodistribution: Intestine / Biodistribution: LNCaP tumor / Biodistribution: Liver / Biodistribution: Lungs / Biodistribution: Muscle / Biodistribution: Pancreas / Biodistribution: Salivary gland / Biodistribution: Seminal gland / Biodistribution: Spleen / Biodistribution: Stomach / Biodistribution: Testes / Biodistribution: Thyroid / Biodistribution: Urine / Biodistribution: kidney: Avg
Method: LNCaP cell line was obtained from ATCC (LNCaP clone FGC, CRL-1740). It was established from a metastatic site of left supraclavicular lymph node of human prostatic adenocarcinoma. Cells were cultured in PRMI 1640 medium supplemented with 10% FBS, penicillin (100 U/mL) and streptomycin (100 μg/mL) at 37° C. in a humidified incubator containing 5% CO2. Cells grown to 80-90% confluence were then washed with sterile phosphate-buffered saline (1×PBS pH 7.4) and trypsinization. The collected cells number was counted with a Hausser Scientific (Horsham, PA) Hemacytometer. Approximately 10 million LNCaP cells were inoculated into the left dorsal flank of immunocomprised NRG mice. The tumours were allowed to grow for 4-6 weeks and used for imaging and biodistribution studies when a volume of 200-600 mm^3 was reached.
PET imaging experiments were conducted using Siemens Inveon micro PET/CT scanner. SPECT imaging experiments were conducted using an MILabs micro SPECT/CT scanner. Each tumor bearing mouse was injected 4-6 MBq of ^68Ga or 18.5 MBq of ^177Lu labeled tracer through the tail vein under anesthesia (2% isoflurane in oxygen). The mice were allowed to recover and roam freely in their cage. At pre-defined time point, the mice were sedated again with 2% isoflurane in oxygen inhalation and positioned in the scanner. A 10-min CT scan was conducted first for localization and attenuation correction after segmentation for reconstructing the PET or SPECT images. Then, a 10-min static PET imaging or a one hour (30 min×2 frames) of static SPECT scan was performed to determined uptake in tumor and other organs. The mice were kept warm by a heating pad during acquisition.
For biodistribution studies, the mice were injected with the radiotracer as described above. The mice were anesthetized with 2% isoflurane inhalation, and euthanized by CO2 inhalation. Blood was withdrawn immediately from the heart, and the organs/tissues of interest were collected. The collected organs/tissues were weighed and counted using a Perkin Elmer (Waltham, MA) Wizard2 2480 gamma counter. The uptake in each organ/tissue was normalized to the injected dose (radioactivity) using a standard curve, and expressed as the percentage of the injected dose per gram of tissue (% ID/g).

Blood radioactivity (1 and 3 h p.i.): high and sustained blood radioactivity
Biodistribution: Adrenal gland (1 h p.i.): 3.82 % ID/g
Biodistribution: Blood (1 h p.i.): 19.52 % ID/g
Biodistribution: Bone (1 h p.i.): 0.77 % ID/g
Biodistribution: Brain (1 h p.i.): 0.30 % ID/g
Biodistribution: Fat (1 h p.i.): 1.35 % ID/g
Biodistribution: Heart (1 h p.i.): 4.02 % ID/g
Biodistribution: Intestine (1 h p.i.): 1.72 % ID/g
Biodistribution: LNCaP tumor (1 h p.i.): 7.11 % ID/g
Biodistribution: Liver (1 h p.i.): 3.04 % ID/g
Biodistribution: Lungs (1 h p.i.): 6.51 % ID/g
Biodistribution: Muscle (1 h p.i.): 1.15 % ID/g
Biodistribution: Pancreas (1 h p.i.): 1.56 % ID/g
Biodistribution: Salivary gland (1 h p.i.): 2.74 % ID/g
Biodistribution: Seminal gland (1 h p.i.): 0.88 % ID/g
Biodistribution: Spleen (1 h p.i.): 1.56 % ID/g
Biodistribution: Stomach (1 h p.i.): 0.71 % ID/g
Biodistribution: Testes (1 h p.i.): 2.33 % ID/g
Biodistribution: Thyroid (1 h p.i.): 2.92 % ID/g
Biodistribution: Urine (1 h p.i.): 63.67 % ID/g
Biodistribution: kidney (1 h p.i.): 7.57 % ID/g
Biodistribution: Adrenal gland (3 h p.i.): 4.34 % ID/g
Biodistribution: Blood (3 h p.i.): 19.18 % ID/g
Biodistribution: Bone (3 h p.i.): 1.62 % ID/g
Biodistribution: Brain (3 h p.i.): 0.32 % ID/g
Biodistribution: Fat (3 h p.i.): 1.52 % ID/g
Biodistribution: Heart (3 h p.i.): 3.76 % ID/g
Biodistribution: Intestine (3 h p.i.): 1.53 % ID/g
Biodistribution: LNCaP tumor (3 h p.i.): 17.69 % ID/g
Biodistribution: Liver (3 h p.i.): 3.35 % ID/g
Biodistribution: Lungs (3 h p.i.): 7.15 % ID/g
Biodistribution: Muscle (3 h p.i.): 1.34 % ID/g
Biodistribution: Pancreas (3 h p.i.): 1.41 % ID/g
Biodistribution: Salivary gland (3 h p.i.): 3.82 % ID/g
Biodistribution: Seminal gland (3 h p.i.): 1.73 % ID/g
Biodistribution: Spleen (3 h p.i.): 2.17 % ID/g
Biodistribution: Stomach (3 h p.i.): 0.73 % ID/g
Biodistribution: Testes (3 h p.i.): 2.28 % ID/g
Biodistribution: Thyroid (3 h p.i.): 3.59 % ID/g
Biodistribution: Urine (3 h p.i.): 56.09 % ID/g
Biodistribution: kidney (3 h p.i.): 9.28 % ID/g
Structure (SMILES): COc1ccc(CCCC(=O)NCC(=O)NC(CCCCNC(=O)CN2CCN(CC(=O)[O-])CCN(CC(=O)[O-])CCN(CC(=O)[O-])CC2)C(=O)NCC(=O)NCC2CCC(C(=O)NC(Cc3c4ccccc4cc4ccccc34)C(=O)NCCCCC(NC(=O)NC(CCCC(=O)O)C(=O)O)C(=O)O)CC2)cc1.[68Ga+3] (stereo not shown) [^68Ga-CCZ02009] ({Butanoyl(4-(4-MeO-phenyl))}-G[ξK](DOTA)G[X1][ξAla(9-anthryl)]-{ξLys(Nα-CO-ξAad)})

Biodistribution: Adrenal gland (1 h p.i.): 3.28 % ID/g
Biodistribution: Blood (1 h p.i.): 15.78 % ID/g
Biodistribution: Bone (1 h p.i.): 0.92 % ID/g
Biodistribution: Brain (1 h p.i.): 0.25 % ID/g
Biodistribution: Fat (1 h p.i.): 1.52 % ID/g
Biodistribution: Heart (1 h p.i.): 3.19 % ID/g
Biodistribution: Intestine (1 h p.i.): 1.46 % ID/g
Biodistribution: LNCaP tumor (1 h p.i.): 11.16 % ID/g
Biodistribution: Liver (1 h p.i.): 2.98 % ID/g
Biodistribution: Lungs (1 h p.i.): 5.90 % ID/g
Biodistribution: Muscle (1 h p.i.): 1.07 % ID/g
Biodistribution: Pancreas (1 h p.i.): 1.34 % ID/g
Biodistribution: Salivary gland (1 h p.i.): 2.19 % ID/g
Biodistribution: Seminal gland (1 h p.i.): 0.72 % ID/g
Biodistribution: Spleen (1 h p.i.): 1.28 % ID/g
Biodistribution: Stomach (1 h p.i.): 0.46 % ID/g
Biodistribution: Testes (1 h p.i.): 1.77 % ID/g
Biodistribution: Thyroid (1 h p.i.): 2.54 % ID/g
Biodistribution: Urine (1 h p.i.): 177.03 % ID/g
Biodistribution: kidney (1 h p.i.): 11.93 % ID/g
Biodistribution: Adrenal gland (3 h p.i.): 3.36 % ID/g
Biodistribution: Blood (3 h p.i.): 10.81 % ID/g
Biodistribution: Bone (3 h p.i.): 1.20 % ID/g
Biodistribution: Brain (3 h p.i.): 0.19 % ID/g
Biodistribution: Fat (3 h p.i.): 1.04 % ID/g
Biodistribution: Heart (3 h p.i.): 2.55 % ID/g
Biodistribution: Intestine (3 h p.i.): 1.17 % ID/g
Biodistribution: LNCaP tumor (3 h p.i.): 22.60 % ID/g
Biodistribution: Liver (3 h p.i.): 2.13 % ID/g
Biodistribution: Lungs (3 h p.i.): 4.65 % ID/g
Biodistribution: Muscle (3 h p.i.): 1.13 % ID/g
Biodistribution: Pancreas (3 h p.i.): 1.10 % ID/g
Biodistribution: Salivary gland (3 h p.i.): 2.18 % ID/g
Biodistribution: Seminal gland (3 h p.i.): 1.63 % ID/g
Biodistribution: Spleen (3 h p.i.): 1.01 % ID/g
Biodistribution: Stomach (3 h p.i.): 0.84 % ID/g
Biodistribution: Testes (3 h p.i.): 2.07 % ID/g
Biodistribution: Thyroid (3 h p.i.): 2.09 % ID/g
Biodistribution: Urine (3 h p.i.): 84.38 % ID/g
Biodistribution: kidney (3 h p.i.): 10.94 % ID/g
Structure (SMILES): COc1ccc(CCCC(=O)NCC(=O)NC(CCCCNC(=O)CN2CCN(CC(=O)[O-])CCN(CC(=O)[O-])CCN(CC(=O)[O-])CC2)CC(=O)NCC2CCC(C(=O)NC(Cc3c4ccccc4cc4ccccc34)C(=O)NCCCCC(NC(=O)NC(CCCC(=O)O)C(=O)O)C(=O)O)CC2)cc1.[68Ga+3] (stereo not shown) [^68Ga-CCZ02015]

Biodistribution: Adrenal gland (1 h p.i.): 5.96 % ID/g
Biodistribution: Blood (1 h p.i.): 19.40 % ID/g
Biodistribution: Bone (1 h p.i.): 1.01 % ID/g
Biodistribution: Brain (1 h p.i.): 0.30 % ID/g
Biodistribution: Fat (1 h p.i.): 2.74 % ID/g
Biodistribution: Heart (1 h p.i.): 4.13 % ID/g
Biodistribution: Intestine (1 h p.i.): 1.93 % ID/g
Biodistribution: LNCaP tumor (1 h p.i.): 9.19 % ID/g
Biodistribution: Liver (1 h p.i.): 4.07 % ID/g
Biodistribution: Lungs (1 h p.i.): 8.79 % ID/g
Biodistribution: Muscle (1 h p.i.): 1.48 % ID/g
Biodistribution: Pancreas (1 h p.i.): 1.89 % ID/g
Biodistribution: Salivary gland (1 h p.i.): 3.24 % ID/g
Biodistribution: Seminal gland (1 h p.i.): 2.55 % ID/g
Biodistribution: Spleen (1 h p.i.): 1.90 % ID/g
Biodistribution: Stomach (1 h p.i.): 0.59 % ID/g
Biodistribution: Testes (1 h p.i.): 2.65 % ID/g
Biodistribution: Thyroid (1 h p.i.): 4.11 % ID/g
Biodistribution: Urine (1 h p.i.): 104.40 % ID/g
Biodistribution: kidney (1 h p.i.): 14.01 % ID/g
Biodistribution: Adrenal gland (3 h p.i.): 4.26 % ID/g
Biodistribution: Blood (3 h p.i.): 13.83 % ID/g
Biodistribution: Bone (3 h p.i.): 1.27 % ID/g
Biodistribution: Brain (3 h p.i.): 0.22 % ID/g
Biodistribution: Fat (3 h p.i.): 1.79 % ID/g
Biodistribution: Heart (3 h p.i.): 2.86 % ID/g
Biodistribution: Intestine (3 h p.i.): 1.12 % ID/g
Biodistribution: LNCaP tumor (3 h p.i.): 18.79 % ID/g
Biodistribution: Liver (3 h p.i.): 3.21 % ID/g
Biodistribution: Lungs (3 h p.i.): 5.21 % ID/g
Biodistribution: Muscle (3 h p.i.): 0.95 % ID/g
Biodistribution: Pancreas (3 h p.i.): 1.13 % ID/g
Biodistribution: Salivary gland (3 h p.i.): 2.47 % ID/g
Biodistribution: Seminal gland (3 h p.i.): 1.83 % ID/g
Biodistribution: Spleen (3 h p.i.): 1.17 % ID/g
Biodistribution: Stomach (3 h p.i.): 0.57 % ID/g
Biodistribution: Testes (3 h p.i.): 2.80 % ID/g
Biodistribution: Thyroid (3 h p.i.): 2.41 % ID/g
Biodistribution: Urine (3 h p.i.): 101.55 % ID/g
Biodistribution: kidney (3 h p.i.): 9.90 % ID/g
Structure (SMILES): O=C([O-])CN1CCN(CC(=O)[O-])CCN(CC(=O)NCCCCC(NC(=O)CNC(=O)CCCc2ccc([N+](=O)[O-])cc2)C(=O)NCC(=O)NCC2CCC(C(=O)NC(Cc3c4ccccc4cc4ccccc34)C(=O)NCCCCC(NC(=O)NC(CC(F)C(=O)O)C(=O)O)C(=O)O)CC2)CCN(CC(=O)[O-])CC1.[68Ga+3] (stereo not shown) [^68Ga-CCZ02025] ({Butanoyl(4-(4-NO2Ph))}-G[ξK](DOTA)G[X1][ξAla(9-anthryl)]-X2)
